Data published in patent publication US9326984B2, “Compounds and pharmaceutical compositions for treating disorders associated with the 5-HT1A and 5-HT2A receptors” (priority 2010, dated 2016).

Columns and labels:
[1] = molecular target: T1, 5-HT2A receptors (Rattus norvegicus, UniProt P14842); test: In vitro affinity (radioligand binding inhibition) assay, 3[H]-ketanserin, rat cortex; conditions: for inhibition at 0.3 µM / inhibition at 1 µM / inhibition at 3 µM: read-out: 5-HT2A Inhibition Percentage; for IC50: 3[H]-ketanserin 1 nM, rat cortex, 3-3000 nM in duplicate, read-out: 5-HT2A CI50; for 5-HT2A CI50/affinity compared with the comparative compound: comparison in words versus Flibanserin (and Example 1)
T1 construct: The assay tissue was rat cortex; from tissue; host or cells: rat cortex
Procedure: (§1) The determination of the activity of the synthesized compounds was conducted through assays assessing affinity with the 5-HT1A and 5-HT2A serotonin receptors. The assays used are based on the binding ratings of the substances being tested at different concentrations, compared to the affinity in the single concentration of the radioligands (markers) that have a specific affinity for these receptors.
(§2) These assays, known as binding assays and also known as inhibition experiments, are able to determine the affinity of a substance through the receptor, provided that this substance is soluble under the assay conditions.
(§3) In an inhibition experiment, the quantity of an inhibitor substance (non radioactive—sample or compound being tested) included in the incubation is the only variable, meaning that it is possible to determine for each test drug concentration, the binding inhibition percentage of the radioligand.
(§4) CI50 is a value defined as the concentration of an unbranded substance (test sample) required to inhibit the specific binding of the radioligand in 50% of the receptors.
(§5) The affinity assays with the 5-HT1A and 5-HT2A receptors of the compounds addressed by this invention were conducted by the Biochemical and Molecular Pharmacology Laboratory at the Biomedical Science Institute in Rio de Janeiro Federal University (UFRJ), using its own protocols.
(§6) […] The development of the experiment protocol to assess compounds with affinity for the 5-HT1A receptors was developed on the basis of the experiments conducted by Hall et al (Journal of Neurochemistry (1985) 44: 1685-1696); Mongeau et al (Brain Research (1992) 590: 229-238) and Peroutka (Journal of Neurochemistry (1986) 47: 529-540). The 5-HT2A receptors were based on the studies conducted by Johnson et al (Naunyn-Schmiedeberg's Arch. Pharmacol. (1996) 354 (2): 205-209); Leysen et al (Molecular Pharmacology (1982) 21: 301-314) and Nelson et al (Journal of Pharmacology and Experimental Therapeutics (1993) 265: 1272-1279).
(§7) In order to determine the affinity with the 5-HT2A receptors, 3[H]-ketanserin (1 nM) was used as a ligand and ketanserin (1 μM) as a non-specific ligand. The assay tissue was rat cortex. Table 1 below summarizes the CI50 values obtained for the inventive compounds presented in Examples 1 and 8. In order to determine the CI50 of these compounds, the inhibition assays were conducted using the compounds at concentrations of 3, 10, 30, 100, 300, 1000 and 3000 nM (in duplicate) for both receptors.

[2] = molecular target: T2, 5-HT1A receptors (Rattus norvegicus, UniProt P19327); test: In vitro affinity (radioligand binding inhibition) assay, 3[H]-8-OH-DPAT, rat hippocampus; conditions: for inhibition at 0.03 µM: 30 nM; for inhibition at 0.03 µM / inhibition at 0.1 µM / inhibition at 0.3 µM / IC50: rat hippocampus; for inhibition at 0.03 µM / inhibition at 0.1 µM / inhibition at 0.3 µM: read-out: 5-HT1A Inhibition Percentage; for inhibition at 0.1 µM: 100 nM; for inhibition at 0.3 µM: 300 nM; for IC50: 3[H]-8-OH-DPAT 1 nM, 3-3000 nM in duplicate, read-out: 5-HT1A CI50; for 5-HT1A CI50 compared with the comparative compound: comparison in words/fold versus Flibanserin; for 5-HT2A/5-HT1A CI502A/CI501A: ratio of CI50 5-HT2A to CI50 5-HT1A
T2 construct: The assay tissue was rat hippocampus; from tissue; host or cells: rat hippocampus
T2 sequence (P19327 1-422): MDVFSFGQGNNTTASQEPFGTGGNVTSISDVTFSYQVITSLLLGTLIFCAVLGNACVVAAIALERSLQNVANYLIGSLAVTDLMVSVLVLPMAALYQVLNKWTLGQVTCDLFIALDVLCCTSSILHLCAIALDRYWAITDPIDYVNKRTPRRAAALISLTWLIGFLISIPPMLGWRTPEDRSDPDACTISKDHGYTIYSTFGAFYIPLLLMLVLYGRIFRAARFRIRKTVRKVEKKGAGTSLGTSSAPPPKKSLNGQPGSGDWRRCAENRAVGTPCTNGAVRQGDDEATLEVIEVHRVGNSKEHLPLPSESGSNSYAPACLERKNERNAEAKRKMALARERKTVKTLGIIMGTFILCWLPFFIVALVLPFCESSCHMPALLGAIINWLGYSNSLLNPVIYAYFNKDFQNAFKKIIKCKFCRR
Procedure: as §1, §2, §3, §4, §5, §6
The affinity with the 5-HT1A receptors was assayed by using 3[H]-8-OH-DPAT (3[H]-8-hydroxy-N,N-dipropyl-2-aminotetraline) (1 nM) as a ligand, and 5-HT (5-hydroxytiptamine-serotonin) (10 μM) as a non-specific ligand. The assay tissue was rat hippocampus.
as §7

[3] = tested on: 5-HT receptors; test: In vivo efficacy test: Serotonin Syndrome Model in rats (modified Irwin method); set-up: species or system rat; conditions: 15 mg/kg intraperitoneal, observed 15, 30 and 60 minutes after administration
Procedure: For the efficacy assay, the compounds addressed by this invention were submitted to the modified Irwin assay. The assays were conducted by Porsolt, using a specific protocol for evaluation.
In order to determine the in vivo efficacy of the compounds addressed by this invention, the Serotonin Syndrome Model in rats was used. The model was based in the Irwin method (Psychopharmacologia (1968), 13: 222-257), adapted to assess the effects of seroton agonists pursuant to Martin et al (Journal of Pharmacol. Meth. (1985), 13: 193-200) and Ortman et al (Naunyn-Schmiedeberg's Arch. Pharmacol (1981), 316: 225-230).
Two animals from each group were assessed through a series of separate observations. Escitalopram was used as the positive control for the study.
Behavioral and physiological alterations as well as neurotoxicity symptoms, rectal temperature and pupil diameter were recorded.
Additionally, the specific signs related to the stimulation of the 5-HT receptors were observed and quantified, being: head twitches (HT), fore paw treading (FPT), flat body posture (FBP), hind limb splay (HLS), lower lip retraction (LLR) and spontaneous tail flicks (STF) (Straub).
The observations were conducted at 15, 30 and 60 minutes after administration of the compounds being tested.
The compounds were tested as set forth in Examples 1 and 7. As the comparative compound 1,3-dihydro-1-(2-(4-(3-(trifluoromethyl)phenyl)-1-piperazinyl)ethyl)-2H-benzimidizol-2-one (Flibanserin) was used. All the compounds were administered at a dose of 15 mg/kg, intraperitoneal.
The observations of the specific stimulation data of the 5-HT receptors by each compound are presented in the graph given in FIG. 1.

T1 sequence (P14842 whole entry): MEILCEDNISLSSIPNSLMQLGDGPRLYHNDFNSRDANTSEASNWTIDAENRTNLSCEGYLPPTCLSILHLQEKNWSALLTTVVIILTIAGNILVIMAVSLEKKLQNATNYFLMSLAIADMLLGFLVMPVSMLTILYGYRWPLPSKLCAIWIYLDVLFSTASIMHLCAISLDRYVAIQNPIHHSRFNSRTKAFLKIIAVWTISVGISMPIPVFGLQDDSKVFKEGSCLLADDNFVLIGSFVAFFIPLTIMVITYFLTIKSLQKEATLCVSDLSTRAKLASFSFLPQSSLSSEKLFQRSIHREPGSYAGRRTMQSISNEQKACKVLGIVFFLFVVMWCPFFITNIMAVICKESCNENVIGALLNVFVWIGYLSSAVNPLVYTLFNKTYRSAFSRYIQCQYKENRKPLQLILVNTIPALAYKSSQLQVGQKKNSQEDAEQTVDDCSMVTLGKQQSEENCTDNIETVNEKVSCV

Row | Structure (SMILES) | inhibition at 0.3 µM [1] [%] | inhibition at 1 µM [1] [%] | inhibition at 0.03 µM [2] [%] | inhibition at 0.1 µM [2] [%] | inhibition at 3 µM [1] [%] | inhibition at 0.3 µM [2] [%] | signs of stimulation of the 5-HT receptors (HT, FPT, FBP, HLS, LLR, STF) [3] | IC50 [1] [nM] | 5-HT2A CI50/affinity compared with the comparative compound [1] | IC50 [2] [nM] | 5-HT1A CI50 compared with the comparative compound [2] | 5-HT2A/5-HT1A CI502A/CI501A [2]
1 | N#Cc1ccccc1N1CCN(CCn2cnc3ccccc3c2=O)CC1 [Example 5, 3-(2-(4-(2-cyanophenyl)piperazine-1-yl)ethyl)quinazoline-4 (3H)-one] | 38 | 78 | 12 | 49 |  |  |  |  |  |  |  | 
2 | Cc1cccc(N2CCN(CCn3cnc4ccccc4c3=O)CC2)c1C [Example 3, 3-(2-(4-(2,3-dimethylphenyl)piperazine-1-yl)ethyl)quinazoline-4 (3H)-one] | 89 | 88 | 47 | 84 |  |  |  |  |  |  |  | 
3 | Cc1ccccc1N1CCN(CCn2cnc3ccccc3c2=O)CC1 [Example 2, 3-(2-(4-o-tolylpiperazine-1-yl)ethyl)quinazoline-4 (3H)-one] | 61 | 82 | 21 | 51 |  |  |  |  |  |  |  | 
4 | CCOc1ccccc1N1CCN(CCn2c(CC)nc3ccccc3c2=O)CC1 [Example 10, 2-ethyl-3-(2-(4-(2-ethoxyphenyl)piperazine-1-yl)ethyl)quinazoline-4 (3H)-one] | 8 | 27 | 26 | 51 | 58 | 79 |  |  |  |  |  | 
5 | CCc1nc2ccccc2c(=O)n1CCN1CCN(c2cccc(C)c2C)CC1 [Example 8, 3-(2-(4-(2,3-dimethylphenyl)piperazine-1-yl)ethyl)-2-ethylquinazoline-4 (3H)-one] | 67 | 86 | 26 | 76 | 94 | 77 |  |  |  |  |  | 
6 | O=c1c2ccccc2ncn1CCN1CCN(c2ccccc2Cl)CC1 [Example 4, 3-(2-(4-(2-chlorophenyl)piperazine-1-yl)ethyl)quinazoline-4 (3H)-one] | 48 | 77 | 22 | 84 |  |  |  |  |  |  |  | 
7 | COc1ccccc1N1CCN(CCn2cnc3ccccc3c2=O)CC1 [Example 6, 3-(2-(4-(2-methoxyphenyl)piperazine-1-yl)ethyl)quinazoline-4 (3H)-one] | 43 | 63 | 38 | 66 |  |  |  |  |  |  |  | 
8 | CCc1nc2ccccc2c(=O)n1CCN1CCN(c2cccc(C(F)(F)F)c2)CC1 [Example 7, 2-ethyl-3-(2-(4-(3-(trifluoromethyl)phenyl)piperazine-1-yl)ethyl)quinazoline-4 (3H)-one] |  |  |  |  |  |  | triggered fore paw treading (FPT) and more spontaneous tail flicks (STF) | 707 | greater affinity than the comparison compound and the compound in Example 1 | 253 | five times greater | 2.7
9 | O=c1[nH]c2ccccc2n1CCN1CCN(c2cccc(C(F)(F)F)c2)CC1 [Comparative Compound, 1.3-Dihydro-1-(2-(4-(3-(trifluoromethyl)phenyl)-1-piperazinyl)ethyl)-2H-benzimidizol-2-one, reference compound] |  |  |  |  |  |  | only one presented signs of stimulation of the 5-HT receptors, which were spontaneous tail flicks | 453 |  | 47 |  | 9.6
10 | CCc1nc2ccccc2c(=O)n1CCN1CCN(c2ccccc2OC)CC1 [Example 9, 2-ethyl-3-(2-(4-(2-methoxyphenyl)piperazine-1-yl)ethyl)quinazoline-4 (3H)-one] | 13 | 46 | 17 | 46 | 78 | 69 |  |  |  |  |  | 
11 | O=c1c2ccccc2ncn1CCN1CCN(c2cccc(C(F)(F)F)c2)CC1 [Example 1, 3-(2-(4-(3-(trifluoromethyl)phenyl)piperazine-1-yl)ethyl)quinazoline-4 (3H)-one] |  |  |  |  |  |  | triggered spontaneous tail flicks (STF) | 570 | a value slightly higher than the value obtained for the comparative compounds | 47 | the same CI50 value as the comparative compound | 12
12 | CCc1nc2ccccc2c(=O)n1CCN1CCN(c2ccccc2Cl)CC1 [Example 11, 3-(2-(4-(2-chlorophenyl)piperazine-1-yl)ethyl)-2-ethylquinazoline-4 (3H)-one] | 25 | 52 | 5 | 26 | 79 | 38 |  |  |  |  |  | 
